# Data from ChEMBL document CHEMBL3297657, “Synthesis and antitumor activities of novel α-aminophosphonate derivatives containing an alizarin moiety” (Eur J Med Chem, 2014).
# Active and inactive are the calls of the source. The rule behind the calls is not given here.
# Key:
# [1] = test system: HeLa; assay: cells; conditions: Homo sapiens, 48 h
# Description: Cytotoxicity against human HeLa cells after 48 hrs by MTT assay
# [2] = test system: MGC-803; assay: Cytotoxicity against human MGC803 cells after 48 hrs by MTT assay; type: functional, cell-based; conditions: MGC-803, 48 h
# [3] = test system: HUVEC; assay: Cytotoxicity against HUVEC after 48 hrs by MTT assay; type: cell-based; conditions: Homo sapiens
# [4] = test system: HepG2; assay: cells; conditions: Homo sapiens, HepG2, 48 h
# Description: Cytotoxicity against human HepG2 cells after 48 hrs by MTT assay
# [5] = test system: HCT-116; assay: cells; conditions: Homo sapiens, HCT-116, 48 h
# Description: Cytotoxicity against human HCT116 cells after 48 hrs by MTT assay
# [6] = test system: NCI-H460; assay: Cytotoxicity against human NCI-H460 cells after 48 hrs by MTT assay; type: functional, cell-based; conditions: NCI-H460, 48 h
# [7] = test system: CNE; assay: Cytotoxicity against human CNE cells after 48 hrs by MTT assay; type: functional, cell-based
# [8] = test system: KB; assay: Cytotoxicity against human KB cells after 48 hrs by MTT assay; type: functional, cell-based
# [9] = test system: A549; assay: cells; conditions: Homo sapiens, A549, 48 h
# Description: Cytotoxicity against human A549 cells after 48 hrs by MTT assay
# [10] = test system: NCI-H460; assay: Induction of apoptosis in human NCI-H460 cells assessed as early apoptotic cells at 5 to 20 uM after 24 hrs by Annexin V/propidium iodide staining-based flow cytometry relative to control; type: functional, cell-based
SMILES,IC50 [1],IC50 [2],IC50 [3],IC50 [4],IC50 [5],IC50 [6],IC50 [7],IC50 [8],IC50 [9],Activity [10]
CCOP(=O)(OCC)C(NC(=O)C(C)Oc1ccc2c(c1O)C(=O)c1ccccc1C2=O)c1cccc(C)c1 (stereo not given),17.4 µM,8.02 µM,> 50 µM,> 50 µM,36.2 µM,9.31 µM,30.5 µM,9.68 µM,25.6 µM,Active
CCOP(=O)(OCC)C(NC(=O)COc1ccc2c(c1O)C(=O)c1ccccc1C2=O)c1ccc(Br)cc1 (stereo not given),> 50 µM,35.2 µM,> 50 µM,> 50 µM,45.8 µM,46.2 µM,,3.26 µM,45.1 µM,
CCOP(=O)(OCC)C(NC(=O)C(C)Oc1ccc2c(c1O)C(=O)c1ccccc1C2=O)c1ccccc1 (stereo not given),> 50 µM,6.66 µM,> 50 µM,> 50 µM,8.07 µM,8.11 µM,> 50 µM,0.65 µM,34.6 µM,Active
CCOP(=O)(OCC)C(NC(=O)COc1ccc2c(c1O)C(=O)c1ccccc1C2=O)c1ccccc1OC (stereo not given),> 50 µM,29.2 µM,> 50 µM,> 50 µM,30.2 µM,20.8 µM,,1.24 µM,39 µM,
CCOP(=O)(OCC)C(NC(=O)C(C)Oc1ccc2c(c1O)C(=O)c1ccccc1C2=O)c1ccccc1Br (stereo not given),41.6 µM,15.1 µM,24.1 µM,24.1 µM,7.31 µM,4.11 µM,47.3 µM,0.13 µM,11.4 µM,Active
CCOP(=O)(OCC)C(NC(=O)C(C)Oc1ccc2c(c1O)C(=O)c1ccccc1C2=O)c1ccc(C)cc1 (stereo not given),> 50 µM,27.9 µM,> 50 µM,> 50 µM,37 µM,28.9 µM,> 50 µM,0.99 µM,38 µM,
CCOP(=O)(OCC)C(NC(=O)C(C)Oc1ccc2c(c1O)C(=O)c1ccccc1C2=O)c1ccc2ccccc2c1 (stereo not given),23.6 µM,5.6 µM,38.9 µM,38.9 µM,23 µM,14.1 µM,49.4 µM,1.21 µM,25.2 µM,
CCOP(=O)(OCC)C(NC(=O)COc1ccc2c(c1O)C(=O)c1ccccc1C2=O)c1ccc(OC)cc1 (stereo not given),> 50 µM,36.1 µM,> 50 µM,> 50 µM,44.9 µM,20 µM,,7.32 µM,42.2 µM,
CCOP(=O)(OCC)C(NC(=O)COc1ccc2c(c1O)C(=O)c1ccccc1C2=O)c1cccc(OC)c1 (stereo not given),> 50 µM,38 µM,> 50 µM,> 50 µM,49.8 µM,27.9 µM,,15.5 µM,44.1 µM,
O=c1[nH]cc(F)c(=O)[nH]1 [FLUOROURACIL],23.3 µM,46.9 µM,24.1 µM,38.3 µM,10.1 µM,45.1 µM,45.1 µM,1.23 µM,,
CCOP(=O)(OCC)C(NC(=O)COc1ccc2c(c1O)C(=O)c1ccccc1C2=O)c1cccc(C)c1 (stereo not given),10.6 µM,37.9 µM,> 50 µM,28.5 µM,16 µM,33.9 µM,,12 µM,47 µM,
CCOP(=O)(OCC)C(NC(=O)C(C)Oc1ccc2c(c1O)C(=O)c1ccccc1C2=O)c1cccc(Br)c1 (stereo not given),11 µM,27.5 µM,23.6 µM,23.6 µM,15.7 µM,10.7 µM,> 50 µM,2.29 µM,32.8 µM,
CCOP(=O)(OCC)C(NC(=O)C(C)Oc1ccc2c(c1O)C(=O)c1ccccc1C2=O)c1ccc(Cl)cc1 (stereo not given),12.7 µM,25.1 µM,31.8 µM,31.8 µM,15.6 µM,5.11 µM,48.7 µM,0.2 µM,10.7 µM,
CCOP(=O)(OCC)C(NC(=O)COc1ccc2c(c1O)C(=O)c1ccccc1C2=O)c1ccccc1Cl (stereo not given),> 50 µM,39.2 µM,> 50 µM,> 50 µM,16.3 µM,21.2 µM,,1.55 µM,38 µM,
CCOP(=O)(OCC)C(NC(=O)C(C)Oc1ccc2c(c1O)C(=O)c1ccccc1C2=O)c1ccc(Br)cc1 (stereo not given),10.9 µM,18.5 µM,22.2 µM,22.2 µM,12.4 µM,7.83 µM,22.2 µM,0.26 µM,30.3 µM,
O=C1c2ccccc2C(=O)c2c1ccc(O)c2O [ATHRAQUINONES A],> 100 µM,39.4 µM,> 50 µM,> 50 µM,> 50 µM,> 50 µM,> 100 µM,15.7 µM,> 50 µM,
CCOP(=O)(OCC)C(NC(=O)COc1ccc2c(c1O)C(=O)c1ccccc1C2=O)c1ccc(F)cc1 (stereo not given),> 50 µM,30.9 µM,> 50 µM,> 50 µM,36.3 µM,47.9 µM,,6.45 µM,49 µM,
CCOP(=O)(OCC)C(NC(=O)C(C)Oc1ccc2c(c1O)C(=O)c1ccccc1C2=O)c1cccc(F)c1 (stereo not given),> 50 µM,28.9 µM,> 50 µM,> 50 µM,47.1 µM,25.9 µM,> 50 µM,9.12 µM,35.1 µM,
CCOP(=O)(OCC)C(NC(=O)C(C)Oc1ccc2c(c1O)C(=O)c1ccccc1C2=O)c1cccc(OC)c1 (stereo not given),> 50 µM,27.6 µM,> 50 µM,> 50 µM,17 µM,14.9 µM,> 50 µM,5.78 µM,36 µM,
CCOP(=O)(OCC)C(NC(=O)COc1ccc2c(c1O)C(=O)c1ccccc1C2=O)c1ccccc1F (stereo not given),> 50 µM,27.1 µM,> 50 µM,> 50 µM,14.7 µM,12.9 µM,,2.6 µM,37.8 µM,
CCOP(=O)(OCC)C(NC(=O)C(C)Oc1ccc2c(c1O)C(=O)c1ccccc1C2=O)c1ccc(OC)cc1 (stereo not given),14.7 µM,22.5 µM,> 50 µM,> 50 µM,13.7 µM,14.3 µM,> 50 µM,1 µM,33.7 µM,
CCOP(=O)(OCC)C(NC(=O)COc1ccc2c(c1O)C(=O)c1ccccc1C2=O)c1ccccc1Br (stereo not given),> 50 µM,18.7 µM,> 50 µM,> 50 µM,17.2 µM,12 µM,,6.64 µM,35.8 µM,
CCOP(=O)(OCC)C(NC(=O)COc1ccc2c(c1O)C(=O)c1ccccc1C2=O)c1ccccc1 (stereo not given),18.5 µM,13 µM,> 50 µM,41.4 µM,17.4 µM,11.9 µM,,6.7 µM,12.1 µM,
CCOP(=O)(OCC)C(NC(=O)C(C)Oc1ccc2c(c1O)C(=O)c1ccccc1C2=O)c1ccccc1Cl (stereo not given),20.9 µM,11 µM,19.9 µM,19.9 µM,14.8 µM,3.8 µM,43.1 µM,0.14 µM,10.1 µM,Active
CCOP(=O)(OCC)C(NC(=O)COc1ccc2c(c1O)C(=O)c1ccccc1C2=O)c1ccc(C)cc1 (stereo not given),> 50 µM,12.6 µM,> 50 µM,> 50 µM,13.7 µM,12.2 µM,,9.37 µM,33.8 µM,
CCOP(=O)(OCC)C(NC(=O)C(C)Oc1ccc2c(c1O)C(=O)c1ccccc1C2=O)c1ccc(F)cc1 (stereo not given),34.1 µM,22.9 µM,25.3 µM,25.3 µM,17.9 µM,8.92 µM,> 50 µM,0.87 µM,19.4 µM,
CCOP(=O)(OCC)C(NC(=O)C(C)Oc1ccc2c(c1O)C(=O)c1ccccc1C2=O)c1cccc(Cl)c1 (stereo not given),12.9 µM,29 µM,70.8 µM,70.8 µM,36.3 µM,9.1 µM,> 50 µM,0.22 µM,18.7 µM,
